Measurements as given in the supplement of paper PMC10307832.

Legend:
Assay in all cases: relative viability (nuclei count vs DMSO), 5 days (fraction); higher = more cells survive
Alisertib = compound: COc1cc(Nc2ncc3c(n2)-c2ccc(Cl)cc2C(c2c(F)cccc2OC)=NC3)ccc1C(=O)O [Alisertib]
Outline: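 Cells of lung cancer lines were placed in 1536-well plates and kept overnight at 37 °C. Pinning then delivered five library-drug doses (not always all listed), spaced by √10, onto plates anchored with vehicle, and the cells were left 5 days without changing medium. One step fixed, permeabilised and stained them with Hoechst, and MetaXpress counted nuclei in 4× images. Viability, as a median over plates, is treated-well nuclei divided by vehicle-well nuclei, with acceptance only at control CV below 25% and at least one doubling.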

Alisertib + Olaparib = compound: COc1cc(Nc2ncc3c(n2)-c2ccc(Cl)cc2C(c2c(F)cccc2OC)=NC3)ccc1C(=O)O [Alisertib] + O=C(c1cc(Cc2n[nH]c(=O)c3ccccc23)ccc1F)N1CCN(C(=O)C2CC2)CC1 [Olaparib] (partner 8 µM)
Outline: (§1)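 Medians of duplicate plates are given as relative viability. That measure is the nuclei count in treated wells divided by the count in vehicle wells. Counts were taken on 4× images of lung cancer cell lines in 1536-well plates, 5 days after pin-tool dosing the day after seeding with one drug alone or a fixed anchor-drug dose plus five library-drug doses (not always all listed) in √10 steps.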

Alisertib + Phenformin = compound: COc1cc(Nc2ncc3c(n2)-c2ccc(Cl)cc2C(c2c(F)cccc2OC)=NC3)ccc1C(=O)O [Alisertib] + N=C(N)NC(=N)NCCc1ccccc1 [Phenformin] (partner 250 µM)
Outline: as §1

Alisertib + Trametinib = compound: COc1cc(Nc2ncc3c(n2)-c2ccc(Cl)cc2C(c2c(F)cccc2OC)=NC3)ccc1C(=O)O [Alisertib] + CC(=O)Nc1cccc(-n2c(=O)n(C3CC3)c(=O)c3c(Nc4ccc(I)cc4F)n(C)c(=O)c(C)c32)c1 [Trametinib] (partner 0.02 µM)
Outline: as §1

Cell Line	relative viability (Alisertib; 0.005 µM)	relative viability (Alisertib; 0.01581 µM)	relative viability (Alisertib; 0.05 µM)	relative viability (Alisertib; 0.1581 µM)	relative viability (Alisertib; 0.5 µM)	relative viability (Alisertib + Olaparib; first compound 0.005 µM)	relative viability (Alisertib + Olaparib; first compound 0.01581 µM)	relative viability (Alisertib + Olaparib; first compound 0.05 µM)	relative viability (Alisertib + Olaparib; first compound 0.1581 µM)	relative viability (Alisertib + Olaparib; first compound 0.5 µM)	relative viability (Alisertib + Phenformin; first compound 0.005 µM)	relative viability (Alisertib + Phenformin; first compound 0.01581 µM)	relative viability (Alisertib + Phenformin; first compound 0.05 µM)	relative viability (Alisertib + Phenformin; first compound 0.1581 µM)	relative viability (Alisertib + Phenformin; first compound 0.5 µM)	relative viability (Alisertib + Trametinib; first compound 0.005 µM)	relative viability (Alisertib + Trametinib; first compound 0.01581 µM)	relative viability (Alisertib + Trametinib; first compound 0.05 µM)	relative viability (Alisertib + Trametinib; first compound 0.1581 µM)	relative viability (Alisertib + Trametinib; first compound 0.5 µM)
NCI-H2126	0.938	0.941	0.699	0.361	0.314	0.816	0.785	0.516	0.295	0.321	0.482	0.446	0.413	0.257	0.266	0.563	0.57	0.348	0.281	0.238
HCC-44	0.933	0.928	0.816	0.275	0.212	0.944	0.856	0.501	0.508	0.391	0.146	0.193	0.134	0.0875	0.0665	0.963	0.931	0.509	0.4	0.32
NCI-H460	0.922	0.844	0.49	0.0862	0.0474	0.371	0.387	0.0754	0.0677	0.0562	0.474	0.343	0.0695	0.0235	0.0304	0.102	0.147	0.0441	0.0212	0.0263
SW 1573	0.919	0.644	0.372	0.213	0.147	0.486	0.294	0.209	0.136	0.115	0.371	0.256	0.178	0.113	0.0928	0.512	0.533	0.121	0.119	0.104
NCI-H322M	0.874	0.894	0.812	0.501	0.493	0.77	0.686	0.565	0.459	0.488	0.683	0.793	0.572	0.412	0.409	0.456	0.495	0.403	0.472	0.381
EKVX	0.907	0.85	0.43	0.231	0.186	0.848	0.674	0.282	0.207	0.203	0.209	0.209	0.135	0.129	0.131	0.319	0.37	0.18	0.16	0.155
NCI-H1734	0.802	0.731	0.417	0.299	0.193	0.591	0.531	0.289	0.315	0.172	0.314	0.298	0.256	0.221	0.176	0.678	0.73	0.381	0.238	0.163
SW 900	0.635	0.81	0.506	0.264	0.24	0.897	0.648	0.306	0.29	0.298	0.434	0.589	0.442	0.18	0.141	0.917	0.827	0.374	0.217	0.144
NCI-H520	0.843	0.722	0.462	0.451	0.317	0.317	0.244	0.217	0.18	0.249	0.552	0.395	0.275	0.318	0.2	0.499	0.429	0.35	0.232	0.213
EPLC-272H	0.834	0.758	0.646	0.127	0.139	0.671	0.471	0.293	0.0899	0.116	0.251	0.238	0.284	0.101	0.12	0.258	0.278	0.275	0.179	0.158
NCI-H596	0.882	1	1.07	0.816	0.4	0.779	0.773	0.627	0.522	0.254	0.675	0.875	0.759	0.822	0.393	0.816	0.787	0.776	0.542	0.327
NCI-H1792	0.81	0.68	0.538	0.232	0.109	0.425	0.384	0.138	0.0583	0.0651	0.299	0.253	0.107	0.13	0.0705	0.413	0.43	0.291	0.0949	0.072
NCI-H1993	0.906	0.92	0.621	0.468	0.516	1.09	0.995	0.682	0.483	0.433	0.455	0.495	0.5	0.511	0.449	0.493	0.513	0.442	0.404	0.455
NCI-H647	0.733	0.654	0.318	0.152	0.0801	0.367	0.278	0.086	0.0609	0.0531	0.456	0.336	0.168	0.0894	0.0773	0.358	0.493	0.228	0.159	0.113
NCI-H1793	0.745	0.473	0.411	0.264	0.233	0.798	0.354	0.296	0.273	0.132	0.312	0.233	0.291	0.191	0.148	0.373	0.285	0.192	0.207	0.188
NCI-H1395	0.877	0.862	0.535	0.452	0.394	0.438	0.424	0.442	0.37	0.361	0.427	0.413	0.44	0.358	0.329	1.04	0.922	0.85	0.481	0.38

Cell Line	relative viability (Alisertib; 0.005 µM)	relative viability (Alisertib; 0.01581 µM)	relative viability (Alisertib; 0.05 µM)	relative viability (Alisertib; 0.1581 µM)	relative viability (Alisertib; 0.5 µM)	relative viability (Alisertib + Olaparib; first compound 0.005 µM)	relative viability (Alisertib + Olaparib; first compound 0.01581 µM)	relative viability (Alisertib + Olaparib; first compound 0.05 µM)	relative viability (Alisertib + Olaparib; first compound 0.1581 µM)	relative viability (Alisertib + Olaparib; first compound 0.5 µM)	relative viability (Alisertib + Phenformin; first compound 0.005 µM)	relative viability (Alisertib + Phenformin; first compound 0.01581 µM)	relative viability (Alisertib + Phenformin; first compound 0.05 µM)	relative viability (Alisertib + Phenformin; first compound 0.1581 µM)	relative viability (Alisertib + Phenformin; first compound 0.5 µM)	relative viability (Alisertib + Trametinib; first compound 0.005 µM)	relative viability (Alisertib + Trametinib; first compound 0.01581 µM)	relative viability (Alisertib + Trametinib; first compound 0.05 µM)	relative viability (Alisertib + Trametinib; first compound 0.1581 µM)	relative viability (Alisertib + Trametinib; first compound 0.5 µM)
HCC-827	0.947	1.01	0.812	0.363	0.324	0.639	0.654	0.201	0.293	0.257	0.353	0.431	0.39	0.198	0.178	0.547	0.514	0.293	0.26	0.238
ChaGo-K-1	0.84	0.855	0.348	0.245	0.223	0.355	0.339	0.174	0.17	0.154	0.426	0.382	0.418	0.151	0.139	0.772	0.795	0.213	0.191	0.159
NCI-H2228	0.778	0.85	0.531	0.158	0.189	0.652	0.767	0.205	0.0922	0.0747	0.277	0.287	0.17	0.0908	0.0966	0.565	0.24	0.237	0.121	0.113
NCI-H2170	0.94	0.883	0.815	0.423	0.323	0.601	0.509	0.307	0.206	0.163	0.388	0.374	0.395	0.276	0.207	0.871	0.842	0.401	0.407	0.17
EMC-BAC-2	0.681	0.625	0.455	0.299	0.259	0.452	0.356	0.291	0.294	0.214	0.389	0.343	0.27	0.245	0.197	0.839	0.681	0.439	0.347	0.304
NCI-H522	0.817	1.02	0.696	0.515	0.452	0.604	0.591	0.453	0.452	0.437	0.521	0.56	0.75	0.419	0.493	0.779	0.777	0.728	0.551	0.445
NCI-H23	0.752	0.529	0.272	0.217	0.197	0.287	0.167	0.146	0.141	0.155	0.666	0.512	0.518	0.233	0.163	0.318	0.222	0.199	0.169	0.148
SK-LU-1	0.856	0.802	0.447	0.333	0.232	0.437	0.447	0.344	0.247	0.183	0.455	0.462	0.22	0.21	0.142	0.484	0.457	0.203	0.275	0.279
NCI-H358	0.791	0.797	0.2	0.147	0.14	0.529	0.284	0.117	0.111	0.12	0.259	0.262	0.118	0.0826	0.0797	0.123	0.138	0.0961	0.0877	0.0818
LC-2-ad	0.736	0.594	0.347	0.245	0.225	0.642	0.523	0.211	0.245	0.192	0.474	0.426	0.401	0.295	0.304	0.826	0.698	0.517	0.353	0.191
HCC-15	0.862	0.723	0.513	0.138	0.138	0.689	0.444	0.191	0.165	0.145	0.401	0.313	0.178	0.108	0.1	0.356	0.286	0.175	0.122	0.113
NCI-H2405	0.952	0.967	0.833	0.41	0.282	0.715	0.787	0.794	0.351	0.251	0.366	0.46	0.371	0.28	0.247	0.614	0.559	0.575	0.418	0.217
LXF-289	0.844	0.672	0.46	0.183	0.195	0.757	0.593	0.113	0.101	0.131	0.434	0.338	0.325	0.114	0.109	0.586	0.628	0.265	0.192	0.152
CAL-12T	0.827	0.636	0.229	0.193	0.179	0.66	0.534	0.194	0.159	0.195	0.434	0.253	0.15	0.142	0.169	0.321	0.261	0.155	0.154	0.227
COR-L23	1.02	0.846	0.484	0.203	0.123	0.304	0.298	0.183	0.137	0.101	0.351	0.388	0.243	0.137	0.109	0.609	0.427	0.221	0.133	0.125
